Source: US11214772B2, “Production method for retinal tissue” (SUMITOMO DAINIPPON PHARMA CO., LTD., priority 2014, dated 2022)

Columns and labels:
Format in all cases: cell-based
[1] = test system: human iPS cells (1231A3 strain); experiment: Immunostaining of aggregate cryosections for retinal tissue markers Chx10 and Rx
Text: The above cell aggregates on day 19 after the start of suspension culturing were each fixed with 4% para-formaldehyde to give cryosections. These cryosections were immunostained for Chx10 (anti-Chx10 antibody, manufactured by Exalpha, sheep), which is one of the retinal tissue markers, or Rx (anti-Rx antibody, manufactured by TAKARA, guinea pig), which is one of the retinal tissue markers. In judgment of whether the above marker is positive in the immunostaining analysis, a fluorescence intensity which is not less than 2 times higher than that of the background was taken as positive.
The thus-prepared cell aggregates on day 18 after the start of suspension culturing, which were produced by adding SAG in step 2 from feeder-free iPS cells as a starting material, were fixed with 4% para-formaldehyde to produce frozen sections. These frozen sections were immunostained for Chx10 (anti-Chx10 antibody, Exalpha, sheep), which is one of the retinal tissue markers, or Rx (anti-Rx antibody, manufactured by TAKARA, guinea pig), which is one of the retinal tissue markers. These immunostained sections were observed under an inverted fluorescence microscope.
(§1) The cell aggregates on day 18 after the start of suspension culturing were fixed with 4% para-formaldehyde to produce frozen sections. These frozen sections were immunostained for Chx10 (anti-Chx10 antibody, Exalpha, sheep), which is one of the retinal tissue markers.

[2] = test system: human iPS cells (1231A3 strain); experiment: Bright field observation of cell aggregates in suspension culture (aggregate shape, neuroepithelium / neural tissue formation)
Experimental: The above subconfluent human iPS cells were treated with a cell dispersion solution by using TrypLE Select (Life Technologies), and further dispersed into single cells by a pipetting operation. Thereafter, the above human iPS cells dispersed into single cells were suspended in 100 μl of a serum-free medium in a non-cell-adhesive 96 well culture plate (PrimeSurface 96V-bottom plate, SUMITOMO BAKELITE) at 1.2×10^4 cells per well, and subjected to suspension culturing at 37° C., 5% CO2. As a serum-free medium (gfCDM+KSR) therefor, a 1:1 mixture of F-12 medium and IMDM medium supplemented with 10% KSR, 450 μM 1-monothioglycerol, 1× Chemically defined lipid concentrate was used. At the start of the suspension culturing (on day 0 after the start of suspension culturing, step 2 start), Y27632 (final concentration 20 μM) was added to the above serum-free medium. By day 2 after the start of suspension culturing, cell aggregates were formed (step 2 completed, and step 3 start). On day 3 after the start of suspension culturing, a serum-free medium (50 μl) free of Y27632 was added.
On day 6 after the start of suspension culturing, a half amount of the medium was changed with a medium free of Y27632 and containing or not containing human recombinant BMP4 (manufactured by R&D) to adjust the final concentration of exogenous human recombinant BMP4 to 1.5 nM (55 ng/ml, FIG. 1B) or to give a medium free of exogenous human recombinant BMP4 (FIG. 1A). As the half-medium exchange operation, a half volume of the medium in the culture vessel, namely 75 μl, was discarded, the above fresh serum-free medium (75 μl) was added to adjust the total medium amount to 150 μl. Thereafter, a half amount of the medium was changed with the above serum-free medium free of Y27632 and human recombinant BMP4 once per 2-4 days. […]
The thus-prepared subconfluent human iPS cells were treated with a cell dispersion solution by using TrypLE Select (Life Technologies), and further dispersed into single cells by a pipetting operation. Thereafter, the above human iPS cells dispersed into single cells were suspended in 100 μl of a serum-free medium in a non-cell-adhesive 96 well culture plate (PrimeSurface 96V-bottom plate, SUMITOMO BAKELITE) at 1.2×10^4 cells per well, and subjected to suspension culturing at 37° C., 5% CO2. As a serum-free medium (gfCDM+KSR) therefor, a 1:1 mixture of F-12 medium and IMDM medium supplemented with 10% KSR, 450 μM 1-monothioglycerol, 1× Chemically defined lipid concentrate was used. […] By day 2 after the start of suspension culturing, cell aggregates were formed (step 2 completed, step 3 start). On day 3 after the start of suspension culturing, a serum-free medium (50 μl) free of Y27632 and SAG was added. On day 6 after the start of suspension culturing, a half amount of the medium was changed with a medium free of Y27632 and containing or not containing human recombinant BMP4 (manufactured by R&D) to adjust the final concentration of exogenous human recombinant BMP4 to 1.5 nM (55 ng/ml, FIG. 1D) or to give a medium free of exogenous human recombinant BMP4 (FIG. 1C). As the half-medium exchange operation, a half volume of the medium in the culture vessel, namely 75 μl, was discarded, the above fresh serum-free medium (75 μl) was added to adjust the total medium amount to 150 μl. Thereafter, a half amount of the medium was changed with the above serum-free medium free of Y27632, SAG and human recombinant BMP4 once per 2-4 days. […]
The thus-prepared subconfluent human iPS cells were treated with the cell dispersion solution by using TrypLE Select (Life Technologies), further dispersed into single cells by pipetting operation, and the above human iPS cells dispersed into single cells were suspended in 100 μl of a serum-free medium at 1.2×10^4 cells per well of a non-cell-adhesive 96-well culture plate (PrimeSurface 96V-bottom plate, manufactured by SUMITOMO BAKELITE). Thereafter, the cells were subjected to suspension culturing at 37° C., 5% CO2. […]

[3] = test system: human iPS cells (201B7 strain); experiment: Immunostaining of aggregate frozen sections for retinal tissue markers Chx10 and Rx; design: proportion of Chx10-positive cells: dose or concentration left out as unconfirmed; conditions: Example 3, Essential 8, SAG day 0, day 18
Text: as §1, with “Cell” for “The cell”, “tissue markers, or Rx (anti-Rx antibody, manufactured by TAKARA, guinea pig), which is one of the retinal tissue” for “tissue”
Cell aggregates on day 18 after the start of suspension culturing were fixed with 4% para-formaldehyde to produce frozen sections. These frozen sections were immunostained for Chx10 (anti-Chx10 antibody, Exalpha, sheep), which is one of the retinal tissue markers.

[4] = Example 1, StemFit, SAG 300 nM day 0, BMP4 1.5 nM day 6, day 19
[5] = Example 1, StemFit, SAG 300 nM day 0, no BMP4, day 19
[6] = Example 4 Condition 1, SAG 300 nM day 0, BMP4 1.5 nM day 3, day 18
[7] = Example 4 Condition 2, SAG 300 nM day 0, BMP4 1.5 nM day 6, day 18
[8] = Example 5 Condition 1, SAG 600 nM day 0, BMP4 1.5 nM day 3, day 18
[9] = Example 5 Condition 2, SAG 600 nM day 0, BMP4 1.5 nM day 6, day 18
[10] = Example 2 Condition 3, Essential 8, SAG 300 nM day 0, no BMP4, day 18

## CNC1CCC(N(Cc2cccc(-c3ccncc3)c2)C(=O)c2sc3ccccc3c2Cl)CC1 (stereo not drawn) [SAG]
[1]; [4]
  proportion of Chx10-positive cells: not less than 60%
  proportion of Rx-positive cells in the total cells: not less than 60%
[1]; [5]
  proportion of Chx10-positive cells: less than 3%
  proportion of Rx-positive cells in the total cells: less than 3%
[1]; [6]
  proportion of Chx10-positive cells: about 40%
  proportion of Rx-positive cells in the total cells: about 40%
[1]; [7]
  proportion of Chx10-positive cells: about 40%
  proportion of Rx-positive cells in the total cells: about 40%
[1]; [8]
  proportion of Chx10-positive cells: about 40%
  proportion of Rx-positive cells in the total cells: about 40%
[1]; [9]
  proportion of Chx10-positive cells: about 40%
  proportion of Rx-positive cells in the total cells: about 40%
[1]; Example 7, SAG 30 nM or Shh 300 ng/ml day 0, BMP4 1.5 nM day 3, day 18
  presence of Chx10-positive cells in the cell aggregate: contained Chx10-positive cells
[2]; [4]
  aggregate shape and neuroepithelial structure (bright field): cell aggregates were maintained, and neuroepithelial structure was observed
[2]; [5]
  aggregate shape and neuroepithelial structure (bright field): cell aggregates were maintained, and neuroepithelial structure was observed
[2]; [10]
  aggregate shape and neuroepithelial structure (bright field): cell aggregates were maintained, and neuroepithelial structure was efficiently formed
  proportion of bad form aggregates (collapsed, free of neuroepithelium): 6%
  proportion of good form aggregates (containing many neuroepithelia): 93%
[2]; Example 2 Condition 4, Essential 8, SAG 300 nM day 0, BMP4 1.5 nM day 6, day 18
  aggregate shape and neuroepithelial structure (bright field): cell aggregates were maintained, and neuroepithelial structure was efficiently formed
[2]; Example 4 Condition 1, StemFit, SAG 300 nM day 0, BMP4 1.5 nM day 3, day 18
  aggregate shape and neural tissue formation (microscope): cell aggregates were maintained, and a neural tissue was formed
[2]; Example 4 Condition 2, StemFit, SAG 300 nM day 0, BMP4 1.5 nM day 6, day 18
  aggregate shape and neural tissue formation (microscope): cell aggregates were maintained, and a neural tissue was formed
[2]; Example 5 Condition 1, StemFit, SAG 600 nM day 0, BMP4 1.5 nM day 3, day 18
  aggregate shape and neural tissue formation (microscope): cell aggregates were maintained, and a neural tissue was formed
[2]; Example 5 Condition 2, StemFit, SAG 600 nM day 0, BMP4 1.5 nM day 6, day 18
  aggregate shape and neural tissue formation (microscope): cell aggregates were maintained, and a neural tissue was formed
[2]; Example 7, StemFit, SAG 30 nM, PMA 0.2 μM or human recombinant Shh 300 ng/ml day 0, BMP4 1.5 nM day 3, day 18
  aggregate growth and neuroepithelium formation (bright field): cell aggregates grew and neuroepithelium was formed
[3]; BMP4 1.5 nM day 6
  proportion of Rx-positive cells in the total cells: not less than 40%
[3]; no BMP4
  proportion of Chx10-positive cells: not more than 3%
  proportion of Rx-positive cells in the total cells: not more than 3%
